Test results reported in the supplement of paper PMC10627819.

Experiments:
[1] = tested on: S. pneumoniae D39V; experiment: Bliss interaction score (quartile over a dose matrix) (fitness difference); higher = more antagonism (negative = synergy)
Summary of the method: (§1)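 Fitness was defined as normalised growth: OD595 at the start of stationary phase divided by the plate's robust no-drug mean and capped at 1. Single-drug fitness was inferred from combination measurements. The Bliss score is observed fitness minus the product of the single-drug values, summarised by quartiles across technical, biological and donor/recipient replicates.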

[2] = tested on: S. aureus DSM 20231; experiment: as above
Summary of the method: as §1

[3] = tested on: S. aureus Newman; experiment: as above
Summary of the method: as §1

[4] = tested on: B. subtilis 168; experiment: as above
Summary of the method: as §1

[5] = tested on: S. pneumoniae D39V; experiment: fitness (endpoint OD595 vs no drug) (fraction); higher = more growth
Summary of the method: (§2)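 Bacterial fitness was scored as optical density at the stationary-phase transition relative to the robust mean of no-drug control wells. Scores are capped at 1. The growth data were OD595 readings every 30 min for 14 h at 37 °C, background-subtracted against the first reading, from 384-well plates inoculated at OD595 0.01 in TSB, LB Lennox or CY.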

[6] = tested on: S. aureus DSM 20231; experiment: as above
Summary of the method: as §2

[7] = tested on: S. aureus Newman; experiment: as above
Summary of the method: as §2

[8] = tested on: B. subtilis 168; experiment: as above
Summary of the method: as §2
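For Bliss interaction score (quartile over a dose matrix) in this document: first quartile when negative (synergy) and third quartile when positive (antagonism).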
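For fitness (endpoint OD595 vs no drug) in this document: OD595 on entry to stationary phase over no-drug wells; at most 1.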

COc1ccc(C[C@H](N)C(=O)N[C@H]2[C@@H](O)[C@H](n3cnc4c(N(C)C)ncnc43)O[C@@H]2CO)cc1 [Puromycin] + CN1C2=CC=CC=C2N=C3C1=CC=CC3=O [Pyocyanin]
Conditions	Bliss interaction score
[1]	-0.117
[2]	0.0671
[3]	0.104
[4]	-0.0765

fitness
Conditions	first compound 0.39 µg/mL	first compound 0.78 µg/mL	first compound 1 µg/mL	first compound 1.56 µg/mL	first compound 2 µg/mL	first compound 4 µg/mL
[5], partner 0.325 µg/mL	–	–	0.977	–	0.975	0.792
[5], partner 0.65 µg/mL	–	–	0.926	–	0.866	0.697
[6], partner 1.25 µg/mL	0.86	0.945	–	≥ 1	–	–
[6], partner 2.5 µg/mL	0.96	0.957	–	0.967	–	–
[6], partner 5 µg/mL	0.67	0.725	–	0.681	–	–
[7], partner 1.25 µg/mL	0.907	0.902	–	0.918	–	–
[7], partner 2.5 µg/mL	0.785	0.824	–	0.845	–	–
[7], partner 5 µg/mL	0.476	0.44	–	0.417	–	–
[8], partner 1.25 µg/mL	0.879	0.847	–	0.89	–	–
[8], partner 2.5 µg/mL	0.875	0.812	–	0.823	–	–
[8], partner 5 µg/mL	0.679	0.666	–	0.656	–	–

one replicate
Conditions	fitness
[5], first compound 1 µg/mL, partner 1.3 µg/mL	0.394
[5], first compound 2 µg/mL, partner 1.3 µg/mL	0.34
[5], first compound 4 µg/mL, partner 1.3 µg/mL	0.294
[6], first compound 3.12 µg/mL, partner 1.25 µg/mL	0.946
[6], first compound 3.12 µg/mL, partner 2.5 µg/mL	0.844
[6], first compound 3.12 µg/mL, partner 5 µg/mL	0.482
[6], first compound 6.24 µg/mL, partner 1.25 µg/mL	0.756
[6], first compound 6.24 µg/mL, partner 2.5 µg/mL	0.632
[6], first compound 6.24 µg/mL, partner 5 µg/mL	0.248

CO/N=C(\C(=O)N[C@@H]1C(=O)N2C(C(=O)O)=C(COC(C)=O)CS[C@H]12)c1csc(N)n1 [Cefotaxime] + COc1cccc2c1C(=O)c1c(O)c3c(c(O)c1C2=O)C[C@@](O)(C(=O)CO)C[C@@H]3O[C@H]1C[C@H](N)[C@H](O)[C@H](C)O1 [Doxorubicin]
Conditions	Bliss interaction score
[1]	0.0436
[2]	-0.086
[3]	0.0946
[4]	-0.17

Conditions	fitness
[5], first compound 0.0018 µg/mL, partner 0.25 µg/mL	0.944
[5], first compound 0.0018 µg/mL, partner 0.5 µg/mL	0.963
[5], first compound 0.0018 µg/mL, partner 1 µg/mL	0.863
[5], first compound 0.0035 µg/mL, partner 0.25 µg/mL	0.929
[5], first compound 0.0035 µg/mL, partner 0.5 µg/mL	0.944
[5], first compound 0.0035 µg/mL, partner 1 µg/mL	0.831
[5], first compound 0.007 µg/mL, partner 1 µg/mL	0.731
[6], first compound 0.039 µg/mL, partner 0.625 µg/mL	0.717
[6], first compound 0.039 µg/mL, partner 1.25 µg/mL	0.707
[6], first compound 0.039 µg/mL, partner 2.5 µg/mL	0.633
[6], first compound 0.078 µg/mL, partner 0.625 µg/mL	0.67
[6], first compound 0.078 µg/mL, partner 1.25 µg/mL	0.67
[6], first compound 0.078 µg/mL, partner 2.5 µg/mL	0.589
[6], first compound 0.156 µg/mL, partner 0.625 µg/mL	0.602
[6], first compound 0.156 µg/mL, partner 1.25 µg/mL	0.613
[6], first compound 0.156 µg/mL, partner 2.5 µg/mL	0.583
[6], first compound 0.312 µg/mL, partner 0.625 µg/mL	0.537
[6], first compound 0.312 µg/mL, partner 1.25 µg/mL	0.61
[6], first compound 0.312 µg/mL, partner 2.5 µg/mL	0.572
[7], first compound 0.078 µg/mL, partner 0.625 µg/mL	0.613
[7], first compound 0.078 µg/mL, partner 1.25 µg/mL	0.68
[7], first compound 0.078 µg/mL, partner 2.5 µg/mL	0.663
[7], first compound 0.156 µg/mL, partner 0.625 µg/mL	0.563
[7], first compound 0.156 µg/mL, partner 1.25 µg/mL	0.592
[7], first compound 0.156 µg/mL, partner 2.5 µg/mL	0.618
[7], first compound 0.312 µg/mL, partner 0.625 µg/mL	0.458
[7], first compound 0.312 µg/mL, partner 1.25 µg/mL	0.45
[7], first compound 0.312 µg/mL, partner 2.5 µg/mL	0.408
[8], first compound 0.5 µg/mL, partner 0.625 µg/mL	0.183
[8], first compound 0.5 µg/mL, partner 1.25 µg/mL	0.16
[8], first compound 0.5 µg/mL, partner 2.5 µg/mL	0.0662
[8], first compound 1 µg/mL, partner 0.625 µg/mL	0.106
[8], first compound 1 µg/mL, partner 1.25 µg/mL	0.0654
[8], first compound 1 µg/mL, partner 2.5 µg/mL	0.0366
[8], first compound 2 µg/mL, partner 0.625 µg/mL	0.0861
[8], first compound 2 µg/mL, partner 1.25 µg/mL	0.0715
[8], first compound 2 µg/mL, partner 2.5 µg/mL	0.0755

fitness, one replicate
Conditions	first compound 0.00775 µg/mL	first compound 0.0155 µg/mL	first compound 0.031 µg/mL	first compound 0.0625 µg/mL	first compound 0.125 µg/mL	first compound 0.25 µg/mL	first compound 0.625 µg/mL	first compound 1.25 µg/mL	first compound 2.5 µg/mL
[7], partner 0.625 µg/mL	–	–	–	–	–	–	0.0853	0.0304	0.0624
[7], partner 1.25 µg/mL	–	–	–	–	–	–	0.0701	0.0126	0.0183
[7], partner 2.5 µg/mL	–	–	–	–	–	–	0.0451	0	0.0123
[8], partner 0.625 µg/mL	0.844	0.659	0.476	0.382	0.227	0.187	–	–	–
[8], partner 1.25 µg/mL	0.771	0.571	0.371	0.337	0.232	0.196	–	–	–
[8], partner 2.5 µg/mL	0.35	0.0312	0.0055	0.0527	0.048	0.0308	–	–	–

COc1ccc(C[C@H](N)C(=O)N[C@H]2[C@@H](O)[C@H](n3cnc4c(N(C)C)ncnc43)O[C@@H]2CO)cc1 [Puromycin] + CN(N=O)C(=O)N[C@@H](C=O)[C@@H](O)[C@H](O)[C@H](O)CO [Streptozotocin]
Conditions	Bliss interaction score
[1]	0.0919
[2]	0.0762
[3]	0.0523
[4]	0.0705

fitness
Conditions	first compound 0.39 µg/mL	first compound 0.78 µg/mL	first compound 1 µg/mL	first compound 1.56 µg/mL	first compound 2 µg/mL	first compound 4 µg/mL
[5], partner 1.2 µg/mL	–	–	0.913	–	0.942	0.8
[5], partner 2.4 µg/mL	–	–	0.943	–	0.935	0.806
[5], partner 4.8 µg/mL	–	–	0.969	–	0.926	0.749
[6], partner 0.15 µg/mL	0.894	0.887	–	0.937	–	–
[6], partner 0.3 µg/mL	0.863	0.857	–	0.812	–	–
[6], partner 0.6 µg/mL	0.714	0.772	–	0.705	–	–
[7], partner 0.15 µg/mL	0.912	0.835	–	0.871	–	–
[7], partner 0.3 µg/mL	0.737	0.7	–	0.706	–	–
[7], partner 0.6 µg/mL	0.595	0.534	–	0.559	–	–

fitness, one replicate
Conditions	partner 0.15 µg/mL	partner 0.3 µg/mL	partner 0.6 µg/mL
[6], first compound 3.12 µg/mL	0.907	0.853	0.806
[6], first compound 6.24 µg/mL	0.706	0.6	0.549
[8], first compound 0.39 µg/mL	0.999	0.978	≥ 1
[8], first compound 0.78 µg/mL	≥ 1	≥ 1	0.981
[8], first compound 1.56 µg/mL	≥ 1	0.925	0.938

C[C@@H]1O[C@@H]1P(=O)(O)O [Fosfomycin] + CN(N=O)C(=O)N[C@@H](C=O)[C@@H](O)[C@H](O)[C@H](O)CO [Streptozotocin]
Conditions	Bliss interaction score
[1]	-0.0567
[2]	-0.0585
[3]	-0.0994
[4]	-0.108

fitness
Conditions	partner 0.15 µg/mL	partner 0.3 µg/mL	partner 0.6 µg/mL	partner 1.2 µg/mL	partner 2.4 µg/mL	partner 4.8 µg/mL
[5], first compound 1.25 µg/mL	–	–	–	0.898	0.934	0.952
[5], first compound 2.5 µg/mL	–	–	–	0.899	0.923	0.952
[5], first compound 5 µg/mL	–	–	–	0.732	0.703	0.747
[6], first compound 0.781 µg/mL	0.717	0.627	0.549	–	–	–
[6], first compound 1.562 µg/mL	0.59	0.533	0.509	–	–	–
[6], first compound 3.124 µg/mL	0.476	0.441	0.292	–	–	–
[7], first compound 0.781 µg/mL	0.526	0.501	0.462	–	–	–
[7], first compound 1.562 µg/mL	0.491	0.455	0.342	–	–	–
[7], first compound 3.124 µg/mL	0.129	0.146	0.0801	–	–	–
[8], first compound 1.562 µg/mL	0.682	0.688	0.69	–	–	–
[8], first compound 3.124 µg/mL	0.609	0.588	0.579	–	–	–
[8], first compound 6.248 µg/mL	0.432	0.42	0.435	–	–	–

COc1cccc2c1C(=O)c1c(O)c3c(c(O)c1C2=O)C[C@@](O)(C(=O)CO)C[C@@H]3O[C@H]1C[C@H](N)[C@H](O)[C@H](C)O1 [Doxorubicin] + Cc1ncc([N+](=O)[O-])n1CCO [Metronidazole]
Conditions	Bliss interaction score
[1]	0.0624
[2]	0.0515
[3]	-0.0468
[4]	0.0987

fitness
Conditions	first compound 0.25 µg/mL	first compound 0.5 µg/mL	first compound 0.625 µg/mL	first compound 1 µg/mL	first compound 1.25 µg/mL	first compound 2.5 µg/mL
[5], partner 1.073 µg/mL	0.827	0.954	–	0.895	–	–
[5], partner 1.25 µg/mL	0.993	≥ 1	–	0.969	–	–
[5], partner 2.145 µg/mL	0.79	0.895	–	0.907	–	–
[5], partner 2.5 µg/mL	≥ 1	≥ 1	–	0.981	–	–
[5], partner 4.29 µg/mL	0.809	0.869	–	0.843	–	–
[5], partner 5 µg/mL	0.993	0.996	–	0.944	–	–
[6], partner 0.625 µg/mL	–	–	0.899	–	0.874	0.791
[6], partner 1.25 µg/mL	–	–	0.972	–	0.974	0.84
[6], partner 2.5 µg/mL	–	–	0.994	–	0.965	0.897
[7], partner 0.625 µg/mL	–	–	0.843	–	0.774	0.753
[7], partner 0.781 µg/mL	–	–	0.761	–	0.765	0.75
[7], partner 1.25 µg/mL	–	–	0.881	–	0.807	0.795
[7], partner 1.562 µg/mL	–	–	0.76	–	0.793	0.751
[7], partner 2.5 µg/mL	–	–	0.853	–	0.793	0.732
[7], partner 3.124 µg/mL	–	–	0.76	–	0.806	0.76
[8], partner 0.625 µg/mL	–	–	≥ 1	–	0.964	0.74
[8], partner 1.25 µg/mL	–	–	0.941	–	0.929	0.699
[8], partner 2.5 µg/mL	–	–	0.937	–	0.956	0.653
